Laboratory results: patent publication US12220417B2, “Pharmaceutical compositions comprising (S)-2-(2,6-dioxopiperidin-3-yl)-4-((2-fluoro-4-((3-morpholinoazetidin-1-yl)methyl)benzyl)amino)isoindoline-1,3-dione and methods of using the same” (Celgene Corporation, priority 2019, dated 2025)

How the values were obtained:
Solubility of Compound 1 = assay type: physicochemical; settings: compared to the low dose / proposed dose levels
WA-OSEL = experiment: Flow cytometry viability/apoptosis assay, WA-OSEL; assay type: cell-based; settings: CLL, 120 hours, read-out: % Viable Cells IC50
Method: (§1) Cell Proliferation and Viability Assay Using Hematological Cell Lines: The following exemplary anti-proliferative assay uses exemplary hematological cell lines in the following. The in vitro growth inhibitory activity of Compound 1 described herein was evaluated using a 384-well flow cytometry assay.
(§2) The cell lines were plated in 384-well flat bottom plates and assessed with increasing concentrations of compound ranging from 0.00015 to 10 μM or dimethyl sulfoxide (DMSO) control. The final concentration of DMSO was 0.1% (v/v). Following the addition of Compound 1 or DMSO and incubation for 120 hours, cell number and cell death were analyzed by flow cytometry (Attune®, Thermo Fisher) using Annexin V and the live-cell impermeant DNA dye, DRAQ7. […]
(§3) Flow cytometry data analysis was then performed using the Flow Jo_v10 software to determine the number of viable cells (Annexin V and DRAQ7 double negative staining cells) and percentage of apoptotic cells (Annexin V positive cells) for each condition. […] The IC50 (50% inhibitory concentration) and Emax (maximum efficacy achieved) values were then calculated by performing nonlinear regression curve fitting using log(inhibitor) vs. normalized response—variable slope analysis on GraphPad Prism 7.03. Area under the curve (AUC) was calculated by performing area under curve analysis on GraphPad Prism 7.03. […]

ROS-50 = experiment: Flow cytometry viability/apoptosis assay, ROS-50; assay type: cell-based; settings: ROS-50, DLBCL; 120 hours; read-out: % Viable Cells IC50
Method: as §1, §2, §3

PGA1 = experiment: Flow cytometry viability/apoptosis assay, PGA1; assay type: cell-based; settings: PGA1, CLL; 120 hours; read-out: % Viable Cells IC50
Method: as §1, §2, §3

CII = experiment: Flow cytometry viability/apoptosis assay, CII; assay type: cell-based; settings: CLL, 120 hours, read-out: % Viable Cells IC50
Method: as §1, §2, §3

DB = experiment: Flow cytometry viability/apoptosis assay, DB; assay type: cell-based; settings: Homo sapiens, DLBCL GCB, 120 hours, read-out: % Viable Cells IC50
Method: as §1, §2, §3

Mec1 = experiment: Flow cytometry viability/apoptosis assay, Mec1; assay type: cell-based; settings: Homo sapiens; Mec1, CLL; 120 hours; read-out: % Viable Cells IC50
Method: as §1, §2, §3

OCI-LY3 = experiment: Flow cytometry viability/apoptosis assay, OCI-LY3; assay type: cell-based; settings: Homo sapiens; OCI-LY3, DLBCL ABC; 120 hours; read-out: % Viable Cells IC50
Method: as §1, §2, §3

HG3 = experiment: Flow cytometry viability/apoptosis assay, HG3; assay type: cell-based; settings: HG-3; HG3, CLL; 120 hours; read-out: % Viable Cells IC50
Method: as §1, §2, §3

hematological cell lines = experiment: Cell Proliferation and Viability Assay Using Hematological Cell Lines (whole panel); assay type: cell-based; settings: panel of hematological cell lines, 0.00015 to 10 μM, 5 days
Method: as §1, §2, §3

solubility (Solubility of Compound 1)	IC50 (OCI-LY3)	Structure (SMILES)	IC50 (WA-OSEL)	IC50 (ROS-50)	IC50 (PGA1)	IC50 (CII)	IC50 (DB)	IC50 (Mec1)	IC50 (HG3)	antiproliferative activity and/or apoptotic effects (hematological cell lines)
relatively high		Cl.O=C1CC[C@H](N2C(=O)c3cccc(NCc4ccc(CN5CC(N6CCOCC6)C5)cc4F)c3C2=O)C(=O)N1 [Compound 1 HC, salt]								
relatively high	≥ 10 µM	O=C1CC[C@H](N2C(=O)c3cccc(NCc4ccc(CN5CC(N6CCOCC6)C5)cc4F)c3C2=O)C(=O)N1 [Compound 1, (S)-2-(2,6-dioxopiperidin-3-yl)-4-((2-fluoro-4-((3-morpholinoazetidin-1-yl)methyl)benzyl)amino)isoindoline-1,3-dione]	≥ 10 µM	≥ 10 µM	≥ 10 µM	≥ 10 µM	≥ 10 µM	≥ 10 µM	≥ 10 µM	antiproliferative activity and/or apoptotic effects in almost all hematological cell lines tested
